According to patent US20160220569A1, “CDK4/6 Inhibitor Dosage Formulations For The Protection Of Hematopoietic Stem And Progenitor Cells During Chemotherapy” (G1 Therapeutics, Inc., priority 2015, published 2016):
Where “and” joins values, the source holds several entries; their conditions need not be identical. Equal entries are not always repeated.

Assay: 14-day oral gavage toxicokinetic study in rats
Type: in vivo
Conditions: for Compound 1 Plasma Concentration: daily oral 2 mg/kg (Group 7), individual animals
Protocol: Plasma was obtained from blood samples collected from rats in a composite sampling scheme, with 3 samples collected per sex, per dose, at each target collection time, as illustrated in Table 21 to Table 25. Samples were collected from the vehicle control group on Day 1 and Day 14 at 3 hour after administration. […] Blood samples were collected in tubes containing K3EDTA as an anticoagulant and placed on ice until processed to plasma via centrifugation. Samples were stored frozen at −80° C. until shipment to the bioanalytical laboratory for analysis.
The following parameters were determined:
Cmax: Maximum observed plasma concentration (ng/mL).
A value of 0 ng/mL was assigned to all values below the lower limit of quantitation (BLQ, <10.0 ng/mL).
AUC(0-inf): Area under the plasma concentration vs. time curve extrapolated from 0 to infinity (ng*h/mL), calculated as AUC(0-t)+AUC(t-inf) where AUC(t-inf) is calculated as last measurable concentration (CLast) divided by ke, where ke is the elimination rate constant determined by linear regression of the last three analytically measured points on the log plasma concentration vs. time curve. The selection criteria of the data points for inclusion in the calculation of ke required that at least three data points representing the terminal phase (after Tmax) were regressed and that R2≧0.850 when rounded.
CL: Clearance (L/h/kg), calculated as the dose divided by AUC(0-t).
Vd: Volume of distribution (L/kg), calculated as dose divided by the product of ke and AUC(0-inf).
Vdss: Steady state volume of distribution (L/kg), calculated as clearance […] mean residence time, where mean residence time is calculated as the area under the first moment curve divided by AUC(0-t).
t½: Elimination half-life (h), calculated as ln(2)/ke, where ke is the elimination rate constant determined by linear regression. Half-life was defined as not determined if regression criteria (specified in AUC(0-inf) above) were not met.
Cmax/Dose: Normalized Cmax, calculated as Cmax divided by total dose.
AUC/Dose: Normalized AUC, calculated as AUC(0-t) divided by total dose.
ii. Statistical Analysis Mean and standard deviation (SD) were calculated in Watson. Values of BLQ were assigned a value of 0 ng/mL for mean calculations. Concentration values and derived TK parameters were reported to three significant figures.

[1] = male, rat, plasma, po, 30 mg/kg, oral 30 mg/kg, Study Day 14, Male

Structure (SMILES): CN1CCN(c2ccc(Nc3ncc4cc5n(c4n3)C3(CCCCC3)CNC5=O)nc2)CC1 [Compound 1, 2′-((5-(4-methylpiperazin-1-yl)pyridin-2-yl)amino)-7′,8′-dihydro-6′H-spiro[cyclohexane-1,9′-pyrazino[1′,2′:1,5]pyrrolo[2,3-d]pyrimidin]-6′-one]
- AUC(0-t) [1]: 29300 ng·h/mL
- Cmax [1]: 2030 ng/mL
- Tmax [1]: 4 h
- half-life (male, rat, plasma, po, 30 mg/kg, oral 30 mg/kg, Study Day 14, Male, read-out: t½ (converted)): 4.88 h
- Compound 1 Plasma Concentration (rats, Female, Day 1, 0.5 h, 2 mg/kg): 69.7 ng/mL and 120 ng/mL
- Compound 1 Plasma Concentration (rats, Female, Day 1, 1 h, 2 mg/kg): 53.3 ng/mL and 115 ng/mL and 106 ng/mL
- Compound 1 Plasma Concentration (rats, Female, Day 1, 2 h, 2 mg/kg): 185 ng/mL and 187 ng/mL
- Compound 1 Plasma Concentration (rats, Female, Day 1, 4 h, 2 mg/kg): 90.2 ng/mL and 201 ng/mL and 234 ng/mL
- Compound 1 Plasma Concentration (rats, Female, Day 1, 8 h, 2 mg/kg): 70.0 ng/mL and 69.2 ng/mL and 151 ng/mL
- Compound 1 Plasma Concentration (rats, Female, Day 1, 12 h, 2 mg/kg): 100 ng/mL and 54.7 ng/mL
- Compound 1 Plasma Concentration (rats, Female, Day 1, 24 h, 2 mg/kg): BLQ (Below the lower limit of quantitation (<10.0 ng/mL)) and 28.8 ng/mL and 10.2 ng/mL
- Compound 1 Plasma Concentration (rats, Female, Day 1, […]): BLQ (Below the lower limit of quantitation (<10.0 ng/mL))
- Compound 1 Plasma Concentration (rats, Female, Day 14, 0.5 h, 2 mg/kg): 108 ng/mL
- Compound 1 Plasma Concentration (rats, Female, Day 14, 1 h, 2 mg/kg): 113 ng/mL
- Compound 1 Plasma Concentration (rats, Female, Day 14, 2 h, 2 mg/kg): 200 ng/mL
- Compound 1 Plasma Concentration (rats, Female, Day 14, 4 h, 2 mg/kg): 119 ng/mL
- Compound 1 Plasma Concentration (rats, Female, Day 14, 8 h, 2 mg/kg): 54.0 ng/mL
- Compound 1 Plasma Concentration (rats, Female, Day 14, 12 h, 2 mg/kg): 65.4 ng/mL and 32.0 ng/mL
- Compound 1 Plasma Concentration (rats, Female, Day 14, 24 h, 2 mg/kg): BLQ (Below the lower limit of quantitation (<10.0 ng/mL))
- Compound 1 Plasma Concentration (rats, Female, Day 14, Predose): BLQ (Below the lower limit of quantitation (<10.0 ng/mL))
- Compound 1 Plasma Concentration (rats, Female, Day 14, […], 2 mg/kg): BLQ (Below the lower limit of quantitation (<10.0 ng/mL))
- Compound 1 Plasma Concentration (rats, Male, Day 1, 0.5 h, 2 mg/kg): 64.1 ng/mL and 74.1 ng/mL and 35.0 ng/mL
- Compound 1 Plasma Concentration (rats, Male, Day 1, 1 h, 2 mg/kg): 47.1 ng/mL and 65.2 ng/mL
- Compound 1 Plasma Concentration (rats, Male, Day 1, 2 h, 2 mg/kg): 113 ng/mL and 95.5 ng/mL
- Compound 1 Plasma Concentration (rats, Male, Day 1, 4 h, 2 mg/kg): 107 ng/mL and 148 ng/mL
- Compound 1 Plasma Concentration (rats, Male, Day 1, 8 h, 2 mg/kg): 108 ng/mL and 64.1 ng/mL
- Compound 1 Plasma Concentration (rats, Male, Day 1, 12 h, 2 mg/kg): 61.3 ng/mL and 47.8 ng/mL
- Compound 1 Plasma Concentration (rats, Male, Day 1, 24 h): BLQ (Below the lower limit of quantitation (<10.0 ng/mL))
- Compound 1 Plasma Concentration (rats, Male, Day 1, […]): BLQ (Below the lower limit of quantitation (<10.0 ng/mL))
- Compound 1 Plasma Concentration (rats, Male, Day 14, 0.5 h, 2 mg/kg): 49.0 ng/mL and 55.7 ng/mL
- Compound 1 Plasma Concentration (rats, Male, Day 14, 1 h, 2 mg/kg): 34.9 ng/mL and 61.2 ng/mL
- Compound 1 Plasma Concentration (rats, Male, Day 14, 2 h, 2 mg/kg): 109 ng/mL and 91.3 ng/mL
- Compound 1 Plasma Concentration (rats, Male, Day 14, 4 h, 2 mg/kg): 119 ng/mL and 112 ng/mL
- Compound 1 Plasma Concentration (rats, Male, Day 14, 8 h, 2 mg/kg): 112 ng/mL and 102 ng/mL
- Compound 1 Plasma Concentration (rats, Male, Day 14, 12 h, 2 mg/kg): 50.8 ng/mL and 45.6 ng/mL
- Compound 1 Plasma Concentration (rats, Male, Day 14, 24 h): BLQ (Below the lower limit of quantitation (<10.0 ng/mL))
- Compound 1 Plasma Concentration (rats, Male, Day 14, Predose): BLQ (Below the lower limit of quantitation (<10.0 ng/mL))
- Compound 1 Plasma Concentration (rats, Male, Day 14, […]): BLQ (Below the lower limit of quantitation (<10.0 ng/mL))
- Mean Compound 1 Plasma Concentration (rats, oral 2 mg/kg, Day 1, 24 h, Male, BLQ = <10.0 ng/mL): BLQ
- Mean Compound 1 Plasma Concentration (rats, oral 2 mg/kg, Day 1, […], Female, BLQ = <10.0 ng/mL): BLQ
- Mean Compound 1 Plasma Concentration (rats, oral 2 mg/kg, Day 1, […], Male, BLQ = <10.0 ng/mL): BLQ
- Mean Compound 1 Plasma Concentration (rats, oral 2 mg/kg, Day 1, […], Overall, BLQ = <10.0 ng/mL): BLQ
- Mean Compound 1 Plasma Concentration (rats, oral 2 mg/kg, Day 14, 24 h, Male, BLQ = <10.0 ng/mL): BLQ
- Mean Compound 1 Plasma Concentration (rats, oral 2 mg/kg, Day 14, Pre-dose, Female, BLQ = <10.0 ng/mL): BLQ
- Mean Compound 1 Plasma Concentration (rats, oral 2 mg/kg, Day 14, Pre-dose, Male, BLQ = <10.0 ng/mL): BLQ
- Mean Compound 1 Plasma Concentration (rats, oral 2 mg/kg, Day 14, Pre-dose, Overall, BLQ = <10.0 ng/mL): BLQ
- Mean Compound 1 Plasma Concentration (rats, oral 2 mg/kg, Day 14, […], Male, BLQ = <10.0 ng/mL): BLQ
- Mean Compound 1 Plasma Concentration (rats, oral 5 mg/kg, Day 14, Pre-dose, Male): 20.0 ng/mL
- Mean Compound 1 Plasma Concentration (rats, oral 5 mg/kg, Day 14, Pre-dose, Overall): 18.6 ng/mL
- Mean Compound 1 Plasma Concentration (rats, oral 15 mg/kg, Day 14, Pre-dose, Female): 120 ng/mL
- Mean Compound 1 Plasma Concentration (rats, oral 15 mg/kg, Day 14, Pre-dose, Male): 78.0 ng/mL
- Mean Compound 1 Plasma Concentration (rats, oral 15 mg/kg, Day 14, Pre-dose, Overall): 99.2 ng/mL
- Mean Compound 1 Plasma Concentration (rats, oral 30 mg/kg, Day 14, Pre-dose, Female): 336 ng/mL
- Mean Compound 1 Plasma Concentration (rats, oral 30 mg/kg, Day 14, Pre-dose, Overall): 254 ng/mL
- systemic exposure with increasing dose level (rats, oral, Days 1 and 14): increased roughly proportionally
